Reference: publication PMC6723439, “The Aryl Hydrocarbon Receptor (AhR) Mediates the Counter-Regulatory Effects of Pelargonidins in Models of Inflammation and Metabolic Dysfunctions” (Nutrients, 2019)

How the values were obtained:
[1] = biological target: T1, aryl hydrocarbon receptor (AhR) (Homo sapiens, UniProt P35869); experiment: AhR luciferase reporter transactivation in AhR-transfected HepG2 cells; effects lost in AhR-/- macrophages; type: cell-based
T1 construct: pCMVXL4AhR transfected in HepG2 cells
T1 sequence (P35869 11-848): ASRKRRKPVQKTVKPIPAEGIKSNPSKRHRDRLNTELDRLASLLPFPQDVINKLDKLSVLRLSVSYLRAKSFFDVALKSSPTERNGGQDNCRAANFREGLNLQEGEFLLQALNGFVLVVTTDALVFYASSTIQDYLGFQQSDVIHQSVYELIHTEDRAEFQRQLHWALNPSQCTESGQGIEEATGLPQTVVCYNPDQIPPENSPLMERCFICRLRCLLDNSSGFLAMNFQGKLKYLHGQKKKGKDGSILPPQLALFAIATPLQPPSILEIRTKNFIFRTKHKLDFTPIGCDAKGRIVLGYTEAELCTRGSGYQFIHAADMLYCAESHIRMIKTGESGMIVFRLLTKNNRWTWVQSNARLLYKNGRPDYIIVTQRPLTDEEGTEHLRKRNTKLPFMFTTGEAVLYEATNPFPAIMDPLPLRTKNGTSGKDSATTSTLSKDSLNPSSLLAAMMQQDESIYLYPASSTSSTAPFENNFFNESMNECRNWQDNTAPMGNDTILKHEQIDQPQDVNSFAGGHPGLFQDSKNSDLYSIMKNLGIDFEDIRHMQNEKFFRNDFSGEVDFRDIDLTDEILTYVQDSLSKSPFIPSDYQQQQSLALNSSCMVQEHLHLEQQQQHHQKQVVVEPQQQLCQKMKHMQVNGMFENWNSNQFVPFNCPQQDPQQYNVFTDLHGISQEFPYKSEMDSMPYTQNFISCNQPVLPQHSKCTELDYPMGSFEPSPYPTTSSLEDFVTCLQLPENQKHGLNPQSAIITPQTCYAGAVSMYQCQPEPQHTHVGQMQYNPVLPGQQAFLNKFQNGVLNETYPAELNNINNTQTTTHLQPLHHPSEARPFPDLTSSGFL

[2] = biological target: T1, aryl hydrocarbon receptor (AhR); experiment: AhR luciferase reporter transactivation in AhR-transfected HepG2 cells; type: cell-based

SMILES | EC50 [1] | EC50 [2]
COc1ccc(-c2[o+]c3cc(OC)cc(OC)c3cc2O)cc1 [Mt-P, methylated pelargonidin] | 1.97 µM | 
Oc1ccc(-c2[o+]c3cc(O)cc(O)c3cc2O)cc1 [P, pelargonidin] |  | 4 µM
